Experimental data: patent US12600726B2, “Antagonists of the muscarinic acetylcholine receptor M4” (Vanderbilt University, priority 2017, dated 2026)

How the values were obtained:
Human M4 = biological target: T1, Human M4 (Homo sapiens, UniProt P08173); experiment: mAChR M4 cell-based functional calcium flux assay (human M4/Gqi5/CHO cells); settings: for Emin (human M4): % ACh maximum at 30 μM; for IC50: decrease of the response to an EC80 concentration of acetylcholine
T1 construct: expressed in transfected cells; host or cells: CHO-K1 (ATCC), stably expressing M4 and Gqi5
T1 sequence (P08173 1-479): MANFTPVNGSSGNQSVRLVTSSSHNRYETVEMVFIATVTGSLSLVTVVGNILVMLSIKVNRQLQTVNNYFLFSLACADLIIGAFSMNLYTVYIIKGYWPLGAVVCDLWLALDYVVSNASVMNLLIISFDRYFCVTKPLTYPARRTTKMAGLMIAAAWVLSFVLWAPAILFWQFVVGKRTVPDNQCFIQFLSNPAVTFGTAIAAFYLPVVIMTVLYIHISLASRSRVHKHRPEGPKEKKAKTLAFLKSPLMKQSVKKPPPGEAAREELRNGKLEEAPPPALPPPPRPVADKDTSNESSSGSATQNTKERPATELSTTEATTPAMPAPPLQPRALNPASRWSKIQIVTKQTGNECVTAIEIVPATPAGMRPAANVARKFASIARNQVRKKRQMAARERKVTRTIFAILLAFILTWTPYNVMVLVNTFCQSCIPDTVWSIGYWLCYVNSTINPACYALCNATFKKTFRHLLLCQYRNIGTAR
Method in brief: (§1)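 CHO-K1 cells stably co-expressing M4 of the given species with chimeric Gqi5 were loaded with Fluo-4 AM and read for calcium flux. Compounds (10-point, 1:3 dilutions) were added first, followed by an acetylcholine EC20 at 143 s and an EC80 at 268 s. IC50 reflects the concentration-dependent fall in the EC80 response, fitted with a four-parameter logistic.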

Rat M4 = biological target: T2, Rat M4 (Rattus norvegicus, UniProt P08485); experiment: mAChR M4 cell-based functional calcium flux assay (rat M4/Gqi5/CHO cells); settings: for Emin (rat M4): % ACh maximum at 30 μM; for IC50: decrease of the response to an EC80 concentration of acetylcholine
T2 construct: expressed in transfected cells; host or cells: CHO-K1 (ATCC), stably expressing M4 and Gqi5
T2 sequence (P08485 1-478): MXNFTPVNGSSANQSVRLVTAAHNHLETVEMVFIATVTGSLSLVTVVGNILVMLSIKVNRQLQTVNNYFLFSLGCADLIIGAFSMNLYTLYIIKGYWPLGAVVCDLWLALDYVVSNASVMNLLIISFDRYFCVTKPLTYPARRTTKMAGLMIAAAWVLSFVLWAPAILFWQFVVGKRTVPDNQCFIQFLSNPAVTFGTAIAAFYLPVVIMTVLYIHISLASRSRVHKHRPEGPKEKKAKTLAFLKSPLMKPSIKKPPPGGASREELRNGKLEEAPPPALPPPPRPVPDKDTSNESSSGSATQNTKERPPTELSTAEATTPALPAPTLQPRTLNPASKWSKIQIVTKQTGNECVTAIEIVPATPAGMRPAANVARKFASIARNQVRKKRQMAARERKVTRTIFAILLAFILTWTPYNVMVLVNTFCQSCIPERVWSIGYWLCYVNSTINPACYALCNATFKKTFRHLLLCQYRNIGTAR
Method in brief: as §1

Structure (SMILES)	Emin (human M4) (Human M4)	IC50 (Human M4)	Emin (rat M4) (Rat M4)	IC50 (Rat M4)
Cc1ccc(F)cc1-c1ccc(NCC2CC23CCN(CCC(C)(C)C)CC3)nn1 (stereo not shown) [Compound 29, N-[[6-(3,3-dimethylbutyl)-6-azaspiro[2.5]octan-2-yl]methyl]-6-(5-fluoro-2-methyl-phenyl)pyridazin-3-amine]	2.78%	17.2 nM	3.14%	39.8 nM
CC(C)(C)CCN1CCC2(CC1)CC2CNc1ccc(-c2cc(F)ccc2F)nn1 (stereo not shown) [Compound 30, 6-(2,5-difluorophenyl)-N-[[6-(3,3-dimethylbutyl)-6-azaspiro[2.5]octan-2-yl]methyl]pyridazin-3-amine]	2.43%	31.2 nM	3.26%	107 nM
COc1ccc(F)cc1-c1ccc(NCC2CC23CCN(CCC(C)(C)C)CC3)nn1 (stereo not shown) [Compound 31, N-[[6-(3,3-dimethylbutyl)-6-azaspiro[2.5]octan-2-yl]methyl]-6-(5-fluoro-2-methoxy-phenyl)pyridazin-3-amine]	3.03%	22.1 nM	2.87%	68.8 nM
CC(C)(C)CCN1CCC2(CC1)CC2CNc1ccc(-c2ccc(F)c(F)c2)nn1 (stereo not shown) [Compound 32, 6-(3,4-difluorophenyl)-N-[[6-(3,3-dimethylbutyl)-6-azaspiro[2.5]octan-2-yl]methyl]pyridazin-3-amine]	2.71%	74.9 nM	2.80%	168 nM
CC(C)(C)CCN1CCC2(CC1)CC2CNc1ccc(-c2cc(F)cc(F)c2)nn1 (stereo not shown) [Compound 33, 6-(3,5-difluorophenyl)-N-[[6-(3,3-dimethylbutyl)-6-azaspiro[2.5]octan-2-yl]methyl]pyridazin-3-amine]	2.48%	40 nM	2.09%	110 nM
CC(C)(C)CCN1CCC2(CC1)CC2CNc1ccc(-c2ccccc2)nn1 (stereo not shown) [Compound 34, N-[[6-(3,3-dimethylbutyl)-6-azaspiro[2.5]octan-2-yl]methyl]-6-phenyl-pyridazin-3-amine]	2.24%	17.8 nM	2.88%	86.2 nM
Cc1cnn(C)c1-c1ccc(NCC2CC23CCN(CCC(C)(C)C)CC3)nn1 (stereo not shown) [Compound 35, N-[[6-(3,3-dimethylbutyl)-6-azaspiro[2.5]octan-2-yl]methyl]-6-(2,4-dimethylpyrazol-3-yl)pyridazin-3-amine]	2.58%	3.15 nM	3.44%	47.8 nM
Cc1nn(C)c(C)c1-c1ccc(NCC2CC23CCN(CCC(C)(C)C)CC3)nn1 (stereo not shown) [Compound 36, N-[[6-(3,3-dimethylbutyl)-6-azaspiro[2.5]octan-2-yl]methyl]-6-(1,3,5-trimethylpyrazol-4-yl)pyridazin-3-amine]	2.61%	6.1 nM	4.52%	32.8 nM
Cc1noc(C)c1-c1ccc(NCC2CC23CCN(CCC(C)(C)C)CC3)nn1 (stereo not shown) [Compound 37, N-[[6-(3,3-dimethylbutyl)-6-azaspiro[2.5]octan-2-yl]methyl]-6-(3,5-dimethylisoxazol-4-yl)pyridazin-3-amine]	3.00%	5.29 nM	4.23%	59.3 nM
Cn1nccc1-c1ccc(NCC2CC23CCN(CCC(C)(C)C)CC3)nn1 (stereo not shown) [Compound 38, N-[[6-(3,3-dimethylbutyl)-6-azaspiro[2.5]octan-2-yl]methyl]-6-(2-methylpyrazol-3-yl)pyridazin-3-amine]	3.30%	3.71 nM	4.05%	24 nM
Cn1nc(C(F)(F)F)cc1-c1ccc(NCC2CC23CCN(CCC(C)(C)C)CC3)nn1 (stereo not shown) [Compound 39, N-[[6-(3,3-dimethylbutyl)-6-azaspiro[2.5]octan-2-yl]methyl]-6-[2-methyl-5-(trifluoromethyl)pyrazol-3-yl]pyridazin-3-amine]	2.60%	13.7 nM	3.42%	58.1 nM
CC(=O)Nc1ccc(-c2ccc(NCC3CC34CCN(CCC(C)(C)C)CC4)nn2)cc1 (stereo not shown) [Compound 40, N-[4-[6-[[[6-(3,3-dimethylbutyl)-6-azaspiro[2.5]octan-2-yl]methyl]amino]pyridazin-3-yl]phenyl]acetamide]	2.97%	4.56 nM	3.40%	17.3 nM
CC(C)(C)CCN1CCC2(CC1)CC2CNc1ccc(-c2cccc(F)c2Cl)nn1 (stereo not shown) [Compound 41, 6-(2-chloro-3-fluoro-phenyl)-N-[[6-(3,3-dimethylbutyl)-6-azaspiro[2.5]octan-2-yl]methyl]pyridazin-3-amine]	2.24%	16 nM	3.33%	105 nM
Cc1ccsc1-c1ccc(NCC2CC23CCN(CCC(C)(C)C)CC3)nn1 (stereo not shown) [Compound 42, N-[[6-(3,3-dimethylbutyl)-6-azaspiro[2.5]octan-2-yl]methyl]-6-(3-methyl-2-thienyl)pyridazin-3-amine]	2.88%	11.2 nM	2.94%	49.7 nM
CC(C)(C)CCN1CCC2(CC1)CC2CNc1ccc(-c2cc(F)ccc2C#N)nn1 (stereo not shown) [Compound 43, 2-[6-[[[6-(3,3-dimethylbutyl)-6-azaspiro[2.5]octan-2-yl]methyl]amino]pyridazin-3-yl]-4-fluoro-benzonitrile]	2.34%	23 nM	3.33%	199 nM
CC(C)(C)CCN1CCC2(CC1)CC2CNc1ccc(-c2ccc3ccncc3c2)nn1 (stereo not shown) [Compound 44, N-[[6-(3,3-dimethylbutyl)-6-azaspiro[2.5]octan-2-yl]methyl]-6-(7-isoquinolyl)pyridazin-3-amine]	2.73%	16 nM	3.41%	47.8 nM
CC(C)(C)CCN1CCC2(CC1)CC2CNc1ccc(-c2ccc3ncccc3c2)nn1 (stereo not shown) [Compound 45, N-[[6-(3,3-dimethylbutyl)-6-azaspiro[2.5]octan-2-yl]methyl]-6-(6-quinolyl)pyridazin-3-amine]	2.89%	9.08 nM	3.33%	53.9 nM
CC(C)(C)CCN1CCC2(CC1)CC2CNc1ccc(-c2ccc3c(c2)OCO3)nn1 (stereo not shown) [Compound 46, 6-(1,3-benzodioxol-5-yl)-N-[[6-(3,3-dimethylbutyl)-6-azaspiro[2.5]octan-2-yl]methyl]pyridazin-3-amine]	3.06%	12.2 nM	3.11%	117 nM
CC(C)(C)CCN1CCC2(CC1)CC2CNc1ccc(-c2ccc3ccccc3c2)nn1 (stereo not shown) [Compound 47, N-[[6-(3,3-dimethylbutyl)-6-azaspiro[2.5]octan-2-yl]methyl]-6-(2-naphthyl)pyridazin-3-amine]	2.97%	208 nM	2.90%	390 nM
CC(C)(C)CCN1CCC2(CC1)CC2CNc1ccc(-c2ccccc2OC(F)(F)F)nn1 (stereo not shown) [Compound 48, N-[[6-(3,3-dimethylbutyl)-6-azaspiro[2.5]octan-2-yl]methyl]-6-[2-(trifluoromethoxy)phenyl]pyridazin-3-amine]	2.63%	64.4 nM	2.26%	387 nM
CC(C)(C)CCN1CCC2(CC1)CC2CNc1ccc(-c2cnccc2C(F)(F)F)nn1 (stereo not shown) [Compound 49, N-[[6-(3,3-dimethylbutyl)-6-azaspiro[2.5]octan-2-yl]methyl]-6-[4-(trifluoromethyl)-3-pyridyl]pyridazin-3-amine]	2.64%	12.8 nM	2.44%	94.3 nM
Cc1nn(C)cc1-c1ccc(NCC2CC23CCN(CCC(C)(C)C)CC3)nn1 (stereo not shown) [Compound 50, N-[[6-(3,3-dimethylbutyl)-6-azaspiro[2.5]octan-2-yl]methyl]-6-(1,3-dimethylpyrazol-4-yl)pyridazin-3-amine]	2.71%	2.4 nM	3.70%	15.8 nM
